Assay results: patent publication US20260207592A1, “PHARMACEUTICAL SUSPENSION OF NILOTINIB” (RENATA PHARMACEUTICALS (IRELAND) LIMITED, priority 2022, published 2026)
≈ marks a conversion by molar mass, not a printed value. Where a name gives a salt, the structure may show the parent alone.

What was measured:
[1] = cited from earlier work
[2] = physchem
[3] = Selection of surfactants: API solubility with different surfactants; settings: solubility not done, observation
[4] = physchem; settings: 0.01N HCl, simulated gastric fluid

| SMILES | solubility in alcohol (descriptive) ([1]; alcohol) | solubility in water ([1]; water) [µg/mL] | solubility in water (descriptive) ([1]; water) | solubility [2] [µg/mL] | solubility ([2]; poloxamer 188 solution, 100 mg/ml, aqueous with cosolvent or surfactant or cyclodextrin) [µg/mL] | solubility ([2]; poloxamer 407 solution, 10 mg/ml, aqueous with cosolvent or surfactant or cyclodextrin) [µg/mL] | solubility ([2]; polysorbate 20 solution, 5 mg/ml, aqueous with cosolvent or surfactant or cyclodextrin) [µg/mL] | solubility ([3]; SLS, 5 mg/ml) | solubility ([3]; Span 80, 150 ml/ml) | solubility [4] [µg/mL] |
| --- | --- | --- | --- | --- | --- | --- | --- | --- | --- | --- |
| Cc1cn(-c2cc(NC(=O)c3ccc(C)c(Nc4nccc(-c5cccnc5)n4)c3)cc(C(F)(F)F)c2)cn1 [Nilotinib, 4-Methyl-3-[[4-(3-pyridinyl)-2-pyrimidinyl]amino]-N-[5-(4-methyl-1H-imidazol-1-yl)-3-(trifluoromethyl)phenyl] benzamide] | slightly soluble | 0.2 (≈ 0.378 µM) | very slightly soluble |  |  |  |  |  |  |  |
| Cc1cn(-c2cc(NC(=O)c3ccc(C)c(Nc4nccc(-c5cccnc5)n4)c3)cc(C(F)(F)F)c2)cn1 [API, Nilotinib Hydrochloride Monohydrate] |  |  |  | 0.2 | 321 | 227 | 478 | Not done (Large lump formed | Not done (phase separation observed | 494 |
